Laboratory results as given in ChEMBL document CHEMBL1147623, “Interference of the galactose-dependent binding of lectins by novel pentapeptide ligands” (Bioorg Med Chem Lett, 2004).

How the values were obtained:
[1] = Inhibition of CG-14 binding was determined in solid phase assay; set-up: species or system Gallus gallus
[2] = Inhibition of galectin-1 binding was determined in solid phase assay

SMILES | IC50 [1] | IC50 [2]
CC(C)C[C@H](NC(=O)[C@H](Cc1ccc(O)cc1)NC(=O)[C@@H](CC(=O)O)NC(=O)COCC(=O)NCCCOCCOCCOCCCN)C(=O)N[C@@H](Cc1ccc(O)cc1)C(=O)N[C@@H](Cc1ccccc1)C(N)=O | 6.9 mM | 8 mM
CC(O)[C@@H](NC(=O)COCC(=O)NCCCOCCOCCOCCCN)C(=O)N[C@@H](Cc1ccc(O)cc1)C(=O)N[C@H](CC(=O)O)C(=O)N[C@@H](Cc1ccc(O)cc1)C(=O)N[C@@H](Cc1ccccc1)C(N)=O (some centres undefined) | 7.5 mM | 5.2 mM
